Laboratory results published in ChEMBL document CHEMBL3885881, “DrugMatrix”.

Species on record: Rattus norvegicus
Type: toxicity, organism-based, Sprague-Dawley
Details: in vivo, po, route oral GAVAGE, […]; for ABSOLUTE EOSINOPHIL / ABSOLUTE LYMPHOCYTE / ABSOLUTE MONOCYTE / ABSOLUTE SEGMENTED NEUTROPHIL / BASOPHIL / EOSINOPHIL / ERYTHROCYTE COUNT / HEMATOCRIT / HEMOGLOBIN / LEUKOCYTE COUNT / LYMPHOCYTE / MEAN CORPUSCULAR HEMOGLOBIN / MEAN CORPUSCULAR HEMOGLOBIN CONCENTRATION / MEAN CORPUSCULAR VOLUME / MONOCYTE / NEUTROPHIL / NUCLEATED RED BLOOD CELLS / PLATELET COUNT: tissue Blood; for ALANINE AMINOTRANSFERASE / ALBUMIN / ALKALINE PHOSPHATASE / ASPARTATE AMINOTRANSFERASE / BLOOD UREA NITROGEN / CARBON DIOXIDE / CHLORIDE / CHOLESTEROL / CREATINE PHOSPHOKINASE / CREATININE / GLUCOSE / LACTATE DEHYDROGENASE / LIPASE / PHOSPHORUS / POTASSIUM / SODIUM / TOTAL BILIRUBIN / TOTAL PROTEIN / URIC ACID: tissue Plasma
[1] = 0 mg/kg, 6 h, vehicle control, dose level Control, time 0.25 day
[2] = 0 mg/kg, 24 h, vehicle control, dose level Control, time 1 day
[3] = 30 mg/kg, 6 h, dose level Low, time 0.25 day

Description: DrugMatrix - Regimen: Single

S=C=Nc1cccc2ccccc12 [1-NAPHTHYLISOTHIOCYANATE] was tested, and the “ABSOLUTE EOSINOPHIL” value [1] was 61.17 CELLS/uL, the “ABSOLUTE LYMPHOCYTE” value [1] was 12625.83 CELLS/uL and the “ABSOLUTE MONOCYTE” value [1] was 417.17 CELLS/uL. The “ABSOLUTE SEGMENTED NEUTROPHIL” value [1] was 1595.83 CELLS/uL, the BASOPHIL [1] was 0% and the EOSINOPHIL [1] was 0.33%. The “ERYTHROCYTE COUNT” value [1] was 5.46 x10E6/uL, the HEMATOCRIT [1] was 36.02% and the HEMOGLOBIN [1] was 13.55 G/DL. For the same compound, the “LEUKOCYTE COUNT” value [1] was 14.7 x10E3/uL, the LYMPHOCYTE [1] was 85.83% and the “MEAN CORPUSCULAR HEMOGLOBIN” value [1] was 24.87 pg. For the same compound, the “MEAN CORPUSCULAR HEMOGLOBIN CONCENTRATION” value [1] was 37.65 G/DL, the “MEAN CORPUSCULAR VOLUME” value [1] was 66.03 fL and the MONOCYTE [1] was 2.67%. For the same compound, the NEUTROPHIL [1] was 11.17%, the “NUCLEATED RED BLOOD CELLS” value [1] was 0 /100WBC and the “PLATELET COUNT” value [1] was 1072.33 x10E3/uL. The “ALANINE AMINOTRANSFERASE” value [1] was 63.33 u/L, the ALBUMIN [1] was 4.58 G/DL and the “ALKALINE PHOSPHATASE” value [1] was 285 u/L. The “ASPARTATE AMINOTRANSFERASE” value [1] was 116.5 u/L, the “BLOOD UREA NITROGEN” value [1] was 9.17 mg/dL and the “CARBON DIOXIDE” value [1] was 18.83 mmol/L. For the same compound, the CHLORIDE [1] was 104.5 MEQ/L, the CHOLESTEROL [1] was 68.67 mg/dL and the “CREATINE PHOSPHOKINASE” value [1] was 421 u/L. For the same compound, the CREATININE [1] was 0.58 mg/dL, the GLUCOSE [1] was 160.67 mg/dL and the “LACTATE DEHYDROGENASE” value [1] was 396 u/L. It also gave an LIPASE [1] of 10.33 u/L, a PHOSPHORUS [1] of 12.25 mg/dL and a POTASSIUM [1] of 6.42 MEQ/L. For the same compound, the SODIUM [1] was 142.77 MEQ/L, the “TOTAL BILIRUBIN” value [1] was 0.25 mg/dL and the “TOTAL PROTEIN” value [1] was 5.48 G/DL. For the same compound, the “URIC ACID” value [1] was 1.65 mg/dL, the “ABSOLUTE EOSINOPHIL” value [2] was 23.83 CELLS/uL and the “ABSOLUTE LYMPHOCYTE” value [2] was 11026.5 CELLS/uL. For the same compound, the “ABSOLUTE MONOCYTE” value [2] was 98.5 CELLS/uL, the “ABSOLUTE SEGMENTED NEUTROPHIL” value [2] was 667.83 CELLS/uL and the BASOPHIL [2] was 0%. For the same compound, the EOSINOPHIL [2] was 0.17%, the “ERYTHROCYTE COUNT” value [2] was 4.92 x10E6/uL and the HEMATOCRIT [2] was 31.9%. The HEMOGLOBIN [2] was 12.6 G/DL, the “LEUKOCYTE COUNT” value [2] was 11.82 x10E3/uL and the LYMPHOCYTE [2] was 93%. For the same compound, the “MEAN CORPUSCULAR HEMOGLOBIN” value [2] was 25.7 pg, the “MEAN CORPUSCULAR HEMOGLOBIN CONCENTRATION” value [2] was 39.57 G/DL and the “MEAN CORPUSCULAR VOLUME” value [2] was 64.97 fL. The MONOCYTE [2] was 0.83%, the NEUTROPHIL [2] was 6% and the “NUCLEATED RED BLOOD CELLS” value [2] was 0 /100WBC. For the same compound, the “PLATELET COUNT” value [2] was 872.33 x10E3/uL, the “ALANINE AMINOTRANSFERASE” value [2] was 82.67 u/L and the ALBUMIN [2] was 4.17 G/DL. The “ALKALINE PHOSPHATASE” value [2] was 321.83 u/L, the “ASPARTATE AMINOTRANSFERASE” value [2] was 99.5 u/L and the “BLOOD UREA NITROGEN” value [2] was 13.33 mg/dL. For the same compound, the “CARBON DIOXIDE” value [2] was 33.67 mmol/L, the CHLORIDE [2] was 99.83 MEQ/L and the CHOLESTEROL [2] was 64 mg/dL. For the same compound, the “CREATINE PHOSPHOKINASE” value [2] was 275.33 u/L, the CREATININE [2] was 0.21 mg/dL and the GLUCOSE [2] was 146.17 mg/dL. For the same compound, the “LACTATE DEHYDROGENASE” value [2] was 101 u/L, the LIPASE [2] was 9.83 u/L and the PHOSPHORUS [2] was 8.82 mg/dL. For the same compound, the POTASSIUM [2] was 5.51 MEQ/L, the SODIUM [2] was 143.2 MEQ/L and the “TOTAL BILIRUBIN” value [2] was 0.18 mg/dL. For the same compound, the “TOTAL PROTEIN” value [2] was 5.83 G/DL, the “URIC ACID” value [2] was 0.63 mg/dL and the “ABSOLUTE EOSINOPHIL” value [3] was 14.83 CELLS/uL. For the same compound, the “ABSOLUTE LYMPHOCYTE” value [3] was 9035 CELLS/uL, the “ABSOLUTE MONOCYTE” value [3] was 384.17 CELLS/uL and the “ABSOLUTE SEGMENTED NEUTROPHIL” value [3] was 1199.33 CELLS/uL. The BASOPHIL [3] was 0%, the EOSINOPHIL [3] was 0.17% and the “ERYTHROCYTE COUNT” value [3] was 5.6 x10E6/uL. The HEMATOCRIT [3] was 38.25%, the HEMOGLOBIN [3] was 13.8 G/DL and the “LEUKOCYTE COUNT” value [3] was 10.63 x10E3/uL. The LYMPHOCYTE [3] was 85.5%, the “MEAN CORPUSCULAR HEMOGLOBIN” value [3] was 24.68 pg and the “MEAN CORPUSCULAR HEMOGLOBIN CONCENTRATION” value [3] was 36.08 G/DL. For the same compound, the “MEAN CORPUSCULAR VOLUME” value [3] was 68.37 fL, the MONOCYTE [3] was 3.67% and the NEUTROPHIL [3] was 10.67%. For the same compound, the “NUCLEATED RED BLOOD CELLS” value [3] was 0 /100WBC, the “PLATELET COUNT” value [3] was 1129.33 x10E3/uL and the “ALANINE AMINOTRANSFERASE” value [3] was 63.33 u/L. For the same compound, the ALBUMIN [3] was 4.7 G/DL, the “ALKALINE PHOSPHATASE” value [3] was 419.67 u/L and the “ASPARTATE AMINOTRANSFERASE” value [3] was 128.33 u/L. For the same compound, the “BLOOD UREA NITROGEN” value [3] was 10.5 mg/dL, the “CARBON DIOXIDE” value [3] was 14.83 mmol/L and the CHLORIDE [3] was 104.17 MEQ/L. For the same compound, the CHOLESTEROL [3] was 78.67 mg/dL, the “CREATINE PHOSPHOKINASE” value [3] was 651.17 u/L and the CREATININE [3] was 0.27 mg/dL. The GLUCOSE [3] was 216.83 mg/dL, the “LACTATE DEHYDROGENASE” value [3] was 402.17 u/L and the LIPASE [3] was 11.67 u/L. It also gave a PHOSPHORUS [3] of 17.25 mg/dL, a POTASSIUM [3] of 7.07 MEQ/L and an SODIUM [3] of 146.68 MEQ/L. For the same compound, the “TOTAL BILIRUBIN” value [3] was 0.23 mg/dL, the “TOTAL PROTEIN” value [3] was 6.17 G/DL and the “URIC ACID” value [3] was 3.28 mg/dL.
